We go through five molecules from ChEMBL document CHEMBL1148288, “A new aliphatic amino prodrug system for the delivery of small molecules and proteins utilizing novel PEG derivatives” (J Med Chem, 2004).

Broadly, the IC50 is the concentration that inhibits the measured activity by half. A low value points to greater potency in that assay.

Where a name gives a salt, the structure may show the parent alone.

The subject of the assay is P388. The assay is described as follows: In vitro inhibitory activity against cancerous P388 cell line. The assay is classed as functional, cell-based. The settings on record: Mus musculus.
In the case of `COCCOCCOC(=O)NCC(=O)OCCN(CCOC(=O)CNC(=O)OCCOCCOC)CC(=O)NC(=O)[C@@]1(O)Cc2c(O)c3c(c(O)c2[C@H](OC2CC(N)C(O)C(C)O2)C1)C(=O)c1c(OC)cccc1C3=O` (stereo not given in full), it took 428 nM to reach half-maximal inhibition (IC50). `COCCOCCOC(=O)NC(C)C(=O)OCCN(CCOC(=O)C(C)NC(=O)OCCOCCOC)CC(=O)NC(=O)[C@@]1(O)Cc2c(O)c3c(c(O)c2[C@H](OC2CC(N)C(O)C(C)O2)C1)C(=O)c1c(OC)cccc1C3=O` (stereo not given in full) gave an IC50 of 316 nM. To `COc1cccc2c1C(=O)c1c(O)c3c(c(O)c1C2=O)C[C@@](O)(C(=O)CO)C[C@@H]3O[C@H]1C[C@H](N)[C@H](O)[C@H](C)O1` [DOXORUBICIN HYDROCHLORIDE] belongs 17 nM. Take `COCCOCCOC(=O)NCCOCCOCC(=O)OCCN(CCOC(=O)COCCOCCNC(=O)OCCOCCOC)CC(=O)NC(=O)[C@@]1(O)Cc2c(O)c3c(c(O)c2[C@H](OC2CC(N)C(O)C(C)O2)C1)C(=O)c1c(OC)cccc1C3=O` (stereo not given in full): the IC50 was found to be 1100 nM. To `COCCOCCOC(=O)NCCOCCOCCNC(=O)COCC(=O)OCCN(CCOC(=O)COCC(=O)NCCOCCOCCNC(=O)OCCOCCOC)CC(=O)NC(=O)[C@@]1(O)Cc2c(O)c3c(c(O)c2[C@H](OC2CC(N)C(O)C(C)O2)C1)C(=O)c1c(OC)cccc1C3=O` (stereo not given in full) belongs 455 nM.
